{"source": "patent US10222368B2", "about": "(priority 2012, dated 2019)", "molecular_target": "T1, TLR4-FLNA complex (Homo sapiens, UniProt P21333)", "T1 construct": "To determine the levels of FLNA-α7nAChR, FLNA-TLR4 and α7nAChR-Aβ42 complexes in the lymphocytes; endogenous in cells; host or cells: lymphocytes from venous blood of AD patients and control subjects (ex vivo)", "T1 sequence (P21333 2-2647 limits assumed, one chain of several)": "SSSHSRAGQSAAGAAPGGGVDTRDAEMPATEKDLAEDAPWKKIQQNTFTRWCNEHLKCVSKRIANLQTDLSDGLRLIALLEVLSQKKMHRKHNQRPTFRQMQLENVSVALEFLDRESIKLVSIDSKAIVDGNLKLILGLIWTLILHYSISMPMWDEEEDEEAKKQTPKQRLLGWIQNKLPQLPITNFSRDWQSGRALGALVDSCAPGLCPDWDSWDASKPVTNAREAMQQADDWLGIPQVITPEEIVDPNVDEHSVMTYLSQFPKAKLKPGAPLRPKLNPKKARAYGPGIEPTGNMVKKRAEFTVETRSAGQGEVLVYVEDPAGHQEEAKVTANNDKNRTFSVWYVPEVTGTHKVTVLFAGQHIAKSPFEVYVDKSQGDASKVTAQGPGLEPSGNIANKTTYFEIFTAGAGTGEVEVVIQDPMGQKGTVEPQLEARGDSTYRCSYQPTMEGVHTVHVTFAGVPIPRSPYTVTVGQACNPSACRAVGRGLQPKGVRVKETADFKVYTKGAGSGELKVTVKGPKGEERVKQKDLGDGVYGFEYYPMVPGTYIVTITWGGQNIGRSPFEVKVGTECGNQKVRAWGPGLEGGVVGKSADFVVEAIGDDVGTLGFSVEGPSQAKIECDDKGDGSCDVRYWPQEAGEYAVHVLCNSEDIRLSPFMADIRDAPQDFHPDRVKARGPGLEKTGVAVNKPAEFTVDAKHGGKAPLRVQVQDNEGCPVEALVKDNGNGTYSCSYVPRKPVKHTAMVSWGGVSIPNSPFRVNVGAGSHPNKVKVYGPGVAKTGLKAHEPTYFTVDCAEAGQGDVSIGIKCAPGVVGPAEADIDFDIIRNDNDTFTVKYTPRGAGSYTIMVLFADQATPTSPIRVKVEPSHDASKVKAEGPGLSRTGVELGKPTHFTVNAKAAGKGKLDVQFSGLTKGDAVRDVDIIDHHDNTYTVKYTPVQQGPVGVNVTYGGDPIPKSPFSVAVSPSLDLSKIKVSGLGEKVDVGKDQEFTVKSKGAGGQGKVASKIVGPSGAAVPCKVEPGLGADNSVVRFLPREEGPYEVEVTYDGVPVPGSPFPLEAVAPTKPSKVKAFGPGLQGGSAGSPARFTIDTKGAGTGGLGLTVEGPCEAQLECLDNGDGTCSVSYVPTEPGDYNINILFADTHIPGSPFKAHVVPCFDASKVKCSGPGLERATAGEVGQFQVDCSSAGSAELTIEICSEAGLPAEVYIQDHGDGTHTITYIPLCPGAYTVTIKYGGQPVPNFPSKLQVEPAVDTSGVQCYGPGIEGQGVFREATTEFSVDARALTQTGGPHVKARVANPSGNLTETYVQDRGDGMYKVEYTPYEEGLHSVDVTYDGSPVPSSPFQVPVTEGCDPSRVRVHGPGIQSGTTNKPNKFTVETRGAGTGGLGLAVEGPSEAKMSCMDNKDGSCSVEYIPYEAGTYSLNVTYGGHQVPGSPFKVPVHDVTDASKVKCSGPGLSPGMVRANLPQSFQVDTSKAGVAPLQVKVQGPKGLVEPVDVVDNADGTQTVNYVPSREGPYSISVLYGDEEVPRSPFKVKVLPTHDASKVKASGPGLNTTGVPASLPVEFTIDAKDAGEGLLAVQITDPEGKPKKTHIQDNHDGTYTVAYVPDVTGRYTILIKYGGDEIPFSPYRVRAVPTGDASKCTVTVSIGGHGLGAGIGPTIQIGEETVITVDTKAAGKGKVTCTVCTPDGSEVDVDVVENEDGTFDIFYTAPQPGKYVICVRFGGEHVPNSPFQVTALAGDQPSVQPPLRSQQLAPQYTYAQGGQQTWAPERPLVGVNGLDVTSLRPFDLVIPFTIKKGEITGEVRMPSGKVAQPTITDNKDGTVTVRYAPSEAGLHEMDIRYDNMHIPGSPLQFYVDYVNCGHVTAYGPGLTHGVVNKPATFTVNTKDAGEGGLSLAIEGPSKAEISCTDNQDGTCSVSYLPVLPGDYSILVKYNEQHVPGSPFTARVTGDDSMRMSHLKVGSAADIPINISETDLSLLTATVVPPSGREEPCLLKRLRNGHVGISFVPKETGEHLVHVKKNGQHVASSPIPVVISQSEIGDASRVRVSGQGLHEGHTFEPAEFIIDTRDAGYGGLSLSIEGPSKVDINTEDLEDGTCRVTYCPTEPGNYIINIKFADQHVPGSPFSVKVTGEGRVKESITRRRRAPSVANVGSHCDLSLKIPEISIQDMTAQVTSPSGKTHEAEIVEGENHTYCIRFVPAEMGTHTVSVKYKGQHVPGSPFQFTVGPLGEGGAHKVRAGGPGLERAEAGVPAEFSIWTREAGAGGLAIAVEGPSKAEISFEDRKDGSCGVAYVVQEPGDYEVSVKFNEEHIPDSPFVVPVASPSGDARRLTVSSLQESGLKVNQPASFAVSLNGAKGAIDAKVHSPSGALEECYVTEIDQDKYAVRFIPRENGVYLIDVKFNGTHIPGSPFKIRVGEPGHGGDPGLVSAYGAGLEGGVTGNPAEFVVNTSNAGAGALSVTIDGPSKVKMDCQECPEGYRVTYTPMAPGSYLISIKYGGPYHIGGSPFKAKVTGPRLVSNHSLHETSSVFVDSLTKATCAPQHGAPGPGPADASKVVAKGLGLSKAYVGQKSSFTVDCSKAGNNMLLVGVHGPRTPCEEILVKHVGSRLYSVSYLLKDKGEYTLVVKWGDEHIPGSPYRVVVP", "assay": "Lymphocyte co-immunoprecipitation / Western blot", "assay_type": "cell-based", "description": "To prepare lymphocytes, 7 ml of venous blood was collected into an EDTA-containing collecting tube or S-monovette (Sarstedt, Newton, N.C.). Collected blood (6 ml) was layered onto 6 ml HISTOPAQUE-1077 (Sigma, St Louis, Mo.) at 25° C. and the entire anti-coagulated blood was centrifuged at 400×g for 30 minutes (25° C.) to yield plasma (top layer) and lymphocytes (opaque interface). The lymphocytes were washed twice by mixing with 6 ml oxygenated Kreb's-Ringer followed by centrifugation at 250×g for 10 minutes and re-suspension. The final pellet was resuspended in 250 μl oxygenated Kreb's-Ringer prior to protein content determination by the Bradford method and assessment of the levels of FLNA-α7nAChR, FLNA-TLR4 and α7nAChR-Aβ42 complexes. To store lymphocytes, the lymphocyte pellet was resuspended in 250 μl ice-cold oxygenated Kreb's-Ringer containing 10% glycerol, and stored at −20° C. for 1 hour before storage at −80° C.\nTo determine the levels of FLNA-α7nAChR, FLNA-TLR4 and α7nAChR-Aβ42 complexes in the lymphocytes, lymphocytes (50 μg) from control subjects were incubated for 30 minutes at 37° C. in 0.25 ml Kreb's-Ringer without or with 100 nM Aβ 42, and lymphocytes (50 μg) from AD subjects were incubated for 30 minutes at 37° C. in 0.25 ml Kreb's-Ringer. Lymphocytes from control and AD subjects were also simultaneously incubated with or without Compound C0105 (1 nM). […] In the case that frozen lymphocyte samples were used, a lymphocyte suspension was gradually thawed by storing at −20° C. for 1 hour after removal from −80° C. and then at thawed at 4° C.\nThe incubation was terminated by adding 1 ml ice-cold Ca^2+-free Kreb's-Ringer containing 0.5 mM EGTA/0.1 mM EDTA, protease and phosphatase inhibitors followed by centrifugation. The resultant lymphocyte pellet was homogenized in 0.25 ml ice-cold immunoprecipitation buffer. […]\nThe results are shown in FIG. 1A and quantified in FIG. 1C. […]"}
{"compound": "CN1CCC2(CC1)NCC(=O)N2Cc1ccccc1", "note": "[Compound C0105]", "values": [{"measurement": "inhibition at 0.001 µM", "setting": "1 nM C0105, 30 min, lymphocytes of 20 AD subjects, read-out: Reduction of TLR4/FLNA complex level (% inhibition)", "value": "~50", "unit": "%"}, {"measurement": "Effect on amount of TLR4-FLNA complexes (in words), pilot study", "setting": "1 nM C0105, Aβ42-treated control and untreated AD lymphocytes", "value": "decreases the amount of TLR4-FLNA complexes"}, {"measurement": "Effect on TLR4/FLNA complex level (in words)", "setting": "1 nM C0105, lymphocytes of 10 YCI controls", "value": "no discernible effect"}]}
